The record followed here is patent publication US10010623B2, “Lysosome-cleavable linker” (UCL Business PLC, priority 2012, dated 2018).

The compound `O=C1OC(=O)C(Br)=C1Br` [compound 1, 2,3-dibromo-maleic anhydride] displayed a melting point of 107 to 110 °C.
